# Tests used:
# kochia = test: Test C pre-/postemergence test; assay type: in vivo, Kochia scoparia; settings: for Plant response rating, Kochia: scale 0 to 100, 0 no effect, 100 complete control
# How it was run: (§1)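 Seeds were planted and treated preemergence with test chemical in a non-phytotoxic solvent mixture containing surfactant. Postemergence applications of the same formulation went onto plants 2 to 18 cm tall (1- to 4-leaf stage). A dash marks no test result.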
# wild oat = test: Test C pre-/postemergence test; assay type: in vivo, Avena fatua; settings: for Plant response rating, Oat, Wild: scale 0 to 100, 0 no effect, 100 complete control
# How it was run: as §1
# crabgrass = test: Test C pre-/postemergence test; assay type: in vivo, Digitaria sanguinalis; settings: for Plant response rating, Crabgrass, Large: scale 0 to 100, 0 no effect, 100 complete control
# How it was run: as §1
# rice = test: Test C flooded paddy test; assay type: in vivo, Oryza sativa; settings: Flood
# How it was run: (§2)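 In-water treatment: compound dosed into 3 cm flood over soil, water level unchanged throughout. Controls run alongside; visual assessment at day 13–15.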
# eastern black nightshade = test: Test C pre-/postemergence test; assay type: in vivo, Solanum ptycanthum
# How it was run: as §1
# [1] = system: common (oilseed) sunflower; test: Test C pre-/postemergence test; assay type: in vivo, Helianthus annuus; settings: for Sunflower plant response rating: preemergence, scale 0 (no effect) to 100 (complete control)
# How it was run: as §1
# bermudagrass = test: Test C pre-/postemergence test; assay type: in vivo, Cynodon dactylon; settings: for Plant response rating, Bermudagrass: scale 0 to 100, 0 no effect, 100 complete control
# How it was run: as §1
# wheat = test: Test C pre-/postemergence test; assay type: in vivo, Triticum aestivum; settings: for Wheat plant response rating: preemergence, scale 0 (no effect) to 100 (complete control); for Plant response rating, Wheat: scale 0 to 100, 0 no effect, 100 complete control
# How it was run: as §1
# blackgrass = test: Test C pre-/postemergence test; assay type: in vivo, Alopecurus myosuroides; settings: for Plant response rating, Blackgrass: scale 0 to 100, 0 no effect, 100 complete control
# How it was run: as §1
# catchweed bedstraw = test: Test C pre-/postemergence test; assay type: in vivo, Galium aparine
# Excerpt: Seeds of plant species selected from blackgrass (Alopecurus myosuroides), downy brome (Bromus tectorum), green foxtail (Setaria viridis), Italian ryegrass (Lolium multiflorum), wheat (Triticum aestivum), wild oat (Avena fatua), catchweed bedstraw (Galium aparine), Russian thistle (Salsola kali), […] (Cynodon dactylon), Surinam grass (Brachiaria decumbens), cocklebur (Xanthium strumarium), corn (Zea mays), crabgrass (Digitaria sanguinalis), woolly cupgrass (Eriochloa villosa), giant foxtail (Setaria faberii), Goosegrass (Eleusin indica), johnsongrass (Sorghum halepense), kochia (Kochia scoparia), lambsquarters (Chenopodium album), morningglory (Ipomoea coccinea), eastern black nightshade (Solanum ptycanthum), yellow nutsedge (Cyperus esculentus), pigweed (Amaranthus retroflexus), common ragweed (Ambrosia elation), soybean (Glycine max), common (oilseed) sunflower (Helianthus annuus), and velvetleaf (Abutilon theophrasti) were planted and treated preemergence with test chemicals formulated in a non-phytotoxic solvent mixture which included a surfactant. At the same time, plants selected from these crop and weed species and also winter barley (Hordeum vulgare), canarygrass (Phalaris minor), and chickweed (Stellaria media) were treated with postemergence applications of some of the test chemicals formulated in the same manner. Plants ranged in height from 2 to 18 cm (1- to 4-leaf stage) for postemergence treatments. […] At time of treatment, test pots were flooded to 3 cm above the soil surface, treated by application of test compounds directly to the paddy water, and then maintained at that water depth for the duration of the test. […] A dash (-) response means no test result.
# barnyardgrass = test: Test C flooded paddy test; assay type: in vivo, Echinochloa crus-galli; settings: Flood
# How it was run: as §2
# Surinam grass = test: Test C pre-/postemergence test; assay type: in vivo, Brachiaria decumbens; settings: for Surinam Grass plant response rating: preemergence, scale 0 (no effect) to 100 (complete control); for Plant response rating, Surinam Grass: scale 0 to 100, 0 no effect, 100 complete control
# How it was run: as §1
# velvetleaf = test: Test C pre-/postemergence test; assay type: in vivo, Abutilon theophrasti; settings: Postemergence; for Plant response rating, Velvetleaf: scale 0 to 100, 0 no effect, 100 complete control
# How it was run: as §1
# corn = test: Test A pre-/postemergence greenhouse test; assay type: in vivo, Zea mays; settings: for Corn plant response rating: 0 to 100 scale
# How it was run: (§3)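 Seeds sown in a loam soil–sand blend got a preemergence directed soil spray of compound in a non-phytotoxic solvent mixture containing surfactant. Postemergence sprays of the same formulation went at the same time onto plants 2–10 cm tall at the one- to two-leaf stage. Injury was scored visually against untreated controls after about ten days in the greenhouse.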
# redroot pigweed = test: Test A pre-/postemergence greenhouse test; assay type: in vivo, Amaranthus retroflexus; settings: for Pigweed plant response rating: 0 to 100 scale
# How it was run: as §3
# pigweed = test: Test C pre-/postemergence test; assay type: in vivo, Amaranthus retroflexus; settings: for Plant response rating, Pigweed: scale 0 to 100, 0 no effect, 100 complete control
# How it was run: as §1
# [2] = 31 g ai/ha, Preemergence, scale 0 to 100
# [3] = 62 g ai/ha, preemergence, scale 0 (no effect) to 100 (complete control)
# [4] = preemergence, 125 g ai/ha, scale 0 (no effect) to 100 (complete control)
# [5] = 31 g ai/ha, scale 0 to 100 (0 no effect, 100 complete control)
# [6] = 62 g ai/ha, scale 0 to 100, 0 no effect, 100 complete control, 13 to 15 days
# [7] = 125 g ai/ha, scale 0 to 100, 0 no effect, 100 complete control, 13 to 15 days
# [8] = 250 g ai/ha, scale 0 to 100 (0 no effect, 100 complete control)
# [9] = Postemergence, 125 g ai/ha, 0 is no effect, 100 is complete control
# [10] = Postemergence, 500 g ai/ha, 0 is no effect, 100 is complete control
# [11] = Preemergence, 125 g ai/ha, 0 no effect, 100 complete control
# [12] = Preemergence, 500 g ai/ha, 0 to 100 scale where 0 is no effect and 100 is complete control
compound,measurement,setting,value
Cc1cc[n+]([O-])c(S(=O)(=O)Cc2c(C(F)(F)F)nn(C)c2OC(F)F)c1 [Compound 2],Kochia plant response rating,kochia; [2],100
same,Kochia plant response rating,kochia; [3],100
same,"Plant response rating (0 to 100), Kochia","kochia; Postemergence, 31 g ai/ha",0
same,"Plant response rating, Kochia","kochia; Postemergence, 62 g ai/ha",0
same,"Plant response rating, Kochia","kochia; Postemergence, 125 g ai/ha",5
same,"Plant response rating, Kochia","kochia; Postemergence, 250 g ai/ha",5
same,"Plant response rating (0 to 100), Kochia","kochia; Preemergence, 250 g ai/ha",100
same,Kochia plant response rating,kochia; [4],100
same,"Oat, Wild plant response rating",wild oat; [2],50
same,"Oat, Wild plant response rating",wild oat; [3],65
same,"Plant response rating (0 to 100), Oat, Wild","wild oat; Postemergence, 31 g ai/ha",0
same,"Plant response rating, Oat, Wild","wild oat; Postemergence, 62 g ai/ha",0
same,"Plant response rating, Oat, Wild","wild oat; Postemergence, 125 g ai/ha",0
same,"Plant response rating, Oat, Wild","wild oat; Postemergence, 250 g ai/ha",0
same,"Plant response rating (0 to 100), Oat, Wild","wild oat; Preemergence, 250 g ai/ha",95
same,"Oat, Wild plant response rating",wild oat; [4],70
same,"Crabgrass, Large plant response rating",crabgrass; [2],70
same,"Crabgrass, Large plant response rating",crabgrass; [3],100
same,"Plant response rating (0 to 100), Crabgrass, Large","crabgrass; Postemergence, 31 g ai/ha",0
same,"Plant response rating, Crabgrass, Large","crabgrass; Postemergence, 62 g ai/ha",0
same,"Plant response rating, Crabgrass, Large","crabgrass; Postemergence, 125 g ai/ha",0
same,"Plant response rating, Crabgrass, Large","crabgrass; Postemergence, 250 g ai/ha",40
same,"Plant response rating (0 to 100), Crabgrass, Large","crabgrass; Preemergence, 250 g ai/ha",100
same,"Crabgrass, Large plant response rating",crabgrass; [4],100
same,"Plant response rating, Rice",rice; [5],0
same,"Plant response rating, Rice",rice; [6],10
same,"Plant response rating, Rice",rice; [7],45
same,"Plant response rating, Rice",rice; [8],70
same,Nightshade plant response rating,eastern black nightshade; [2],98
same,Nightshade plant response rating,eastern black nightshade; [3],100
same,"Plant response rating (0 to 100), Nightshade","eastern black nightshade; Preemergence, 250 g ai/ha",100
same,Nightshade plant response rating,eastern black nightshade; [4],100
same,Sunflower plant response rating,[1]; 62 g ai/ha,5
same,"Plant response rating (0 to 100), Sunflower","[1]; Preemergence, 250 g ai/ha",100
same,Sunflower plant response rating,[1]; 125 g ai/ha,80
same,Bermudagrass plant response rating,bermudagrass; [2],100
same,Bermudagrass plant response rating,bermudagrass; [3],100
same,"Plant response rating (0 to 100), Bermudagrass","bermudagrass; Postemergence, 31 g ai/ha",0
same,"Plant response rating, Bermudagrass","bermudagrass; Postemergence, 62 g ai/ha",0
same,"Plant response rating, Bermudagrass","bermudagrass; Postemergence, 125 g ai/ha",0
same,"Plant response rating, Bermudagrass","bermudagrass; Postemergence, 250 g ai/ha",40
same,"Plant response rating (0 to 100), Bermudagrass","bermudagrass; Preemergence, 250 g ai/ha",100
same,Bermudagrass plant response rating,bermudagrass; [4],100
same,Wheat plant response rating,wheat; 62 g ai/ha,0
same,"Plant response rating (0 to 100), Wheat","wheat; Postemergence, 31 g ai/ha",0
same,"Plant response rating (0 to 100), Wheat","wheat; Postemergence, 62 g ai/ha",0
same,"Plant response rating, Wheat","wheat; Postemergence, 125 g ai/ha",0
same,"Plant response rating, Wheat","wheat; Postemergence, 250 g ai/ha",0
same,"Plant response rating (0 to 100), Wheat","wheat; Preemergence, 250 g ai/ha",98
same,Wheat plant response rating,wheat; 125 g ai/ha,70
same,Blackgrass plant response rating,blackgrass; [2],60
same,Blackgrass plant response rating,blackgrass; [3],80
same,"Plant response rating (0 to 100), Blackgrass","blackgrass; Postemergence, 31 g ai/ha",0
same,"Plant response rating, Blackgrass","blackgrass; Postemergence, 62 g ai/ha",0
same,"Plant response rating, Blackgrass","blackgrass; Postemergence, 125 g ai/ha",0
same,"Plant response rating, Blackgrass","blackgrass; Postemergence, 250 g ai/ha",0
same,"Plant response rating (0 to 100), Blackgrass","blackgrass; Preemergence, 250 g ai/ha",100
same,Blackgrass plant response rating,blackgrass; [4],80
same,Galium plant response rating,catchweed bedstraw; [2],85
same,Galium plant response rating,catchweed bedstraw; [3],95
same,"Plant response rating (0 to 100), Galium","catchweed bedstraw; Preemergence, 250 g ai/ha",100
same,Galium plant response rating,catchweed bedstraw; [4],100
same,"Plant response rating, Barnyardgrass",barnyardgrass; [5],0
same,"Plant response rating, Barnyardgrass",barnyardgrass; [6],0
same,"Plant response rating, Barnyardgrass",barnyardgrass; [7],55
same,"Plant response rating, Barnyardgrass",barnyardgrass; [8],85
same,Surinam Grass plant response rating,Surinam grass; 62 g ai/ha,100
same,"Plant response rating (0 to 100), Surinam Grass","Surinam grass; Postemergence, 31 g ai/ha",0
same,"Plant response rating (0 to 100), Surinam Grass","Surinam grass; Postemergence, 62 g ai/ha",0
same,"Plant response rating, Surinam Grass","Surinam grass; Postemergence, 125 g ai/ha",0
same,"Plant response rating, Surinam Grass","Surinam grass; Postemergence, 250 g ai/ha",0
same,"Plant response rating (0 to 100), Surinam Grass","Surinam grass; Preemergence, 250 g ai/ha",100
same,Surinam Grass plant response rating,Surinam grass; 125 g ai/ha,100
same,"Plant response rating (0 to 100), Velvetleaf",velvetleaf; 31 g ai/ha,0
same,"Plant response rating (0 to 100), Velvetleaf",velvetleaf; 62 g ai/ha,0
same,"Plant response rating, Velvetleaf",velvetleaf; 125 g ai/ha,0
same,"Plant response rating, Velvetleaf",velvetleaf; 250 g ai/ha,5
same,Corn plant response rating,corn; [9],60
same,Corn plant response rating,corn; [10],60
same,Corn plant response rating,corn; [11],0
same,"Plant response rating, Corn",corn; [12],40
same,Pigweed plant response rating,redroot pigweed; [9],100
same,Pigweed plant response rating,redroot pigweed; [10],100
same,Pigweed plant response rating,redroot pigweed; [11],100
same,"Plant response rating, Pigweed",redroot pigweed; [12],100
same,Pigweed plant response rating,pigweed; [2],100
same,Pigweed plant response rating,pigweed; [3],100
same,"Plant response rating (0 to 100), Pigweed","pigweed; Postemergence, 31 g ai/ha",0
same,"Plant response rating (0 to 100), Pigweed","pigweed; Postemergence, 62 g ai/ha",0
same,"Plant response rating, Pigweed","pigweed; Postemergence, 125 g ai/ha",0
same,"Plant response rating, Pigweed","pigweed; Postemergence, 250 g ai/ha",0
same,"Plant response rating (0 to 100), Pigweed","pigweed; Preemergence, 250 g ai/ha",100
same,Pigweed plant response rating,pigweed; [4],100
